Assay results taken from publication PMC4501059, “Responding to the challenge of untreatable gonorrhea: ETX0914, a first-in-class agent with a distinct mechanism-of-action against bacterial Type II topoisomerases” (Scientific Reports, 2015).
Where “and” joins values, the source holds several entries; their conditions need not be identical. Equal values may be shown once.

Legend:
[1] = test system: mammalian erythroid cell lines; assay: erythroid cytotoxicity (growth inhibition); type: cell-based; settings: read-out: Erythroid IC50
Procedure: (§1) In vitro toxicology. Experiments for assessing micronuclei in mouse lymphoma cells^19 myeloid cytotoxicity^20 and erythroid cytotoxicity^21 were performed as described previously.

[2] = test system: mammalian myeloid cell lines; assay: myeloid cytotoxicity (growth inhibition); type: cell-based; settings: read-out: Myeloid IC50
Procedure: as §1

[3] = Single dose pharmacokinetics, rat; type: in vivo; settings: Han-Wister rat (male)
Procedure: (§2) AZD0914 was analyzed in mouse, rat, dog, monkey plasma using a qualified method which was later validated for human plasma analysis. The validated human method is described below and is representative of the approach taken in other species. AZD0914 was determined in human plasma prepared with K2EDTA as an anticoagulant. AZD0914 and an internal standard (^13C2, ^15N2 AZD0914) were extracted from plasma with tert- butyl methyl ether. After evaporating to dryness under a stream of nitrogen, the residue was reconstituted and quantitated by reverse phase HPLC-MS/MS against a standard curve from 1.00 to 5000 ng/ml. Separation was achieved using a gradient which went from 55% to 85% methanol:acetonitrile (1:1) containing 0.2% formic acid as mobile phase B and 0.2% formic acid in water as mobile phase A at a flow rate of 0.60 ml/min through a Phenomonex Gemini C18 column (50 x 2.0 mm column, […]) heated using a Shimadzu CTO-20AC set to 40 °C. AZD0914 was detected in multiple reaction monitoring (MRM) mode by positive ion electrospray ionization using a Sciex API5500 (Toronto, Canada) mass spectrometer. The ion spray voltage was set to 5500 V and turboionspray temperature was 650 °C. AZD0914 was quantitated using the MRM transition 488.2 → 348.2 using a collision energy of 29 eV. The internal standard, (^13C2, ^15N2 AZD0914), was monitored using identical conditions except for the MRM transition of 492.2 → 348.2.

[4] = Single dose pharmacokinetics, monkey; type: in vivo; settings: plasma, Cynomologus monkey (male)
Procedure: as §2

[5] = plasma protein binding, dog; type: in vitro ADME; settings: in vitro at 1-50 µM
Description: Supplement srep11827-s1.doc, table 4 | column: Beagle dog (male)

Streptococcus pneumoniae = test system: Streptococcus pneumoniae; design: method as in ref 2 (supplement); settings: 2324 tested; ref 2 (supplement); cited from earlier work
Moraxella catarrhalis = test system: Moraxella catarrhalis; design: method as in ref 2 (supplement); settings: 145 tested; ref 2 (supplement); cited from earlier work
Ureaplasma spp. = test system: Ureaplasma spp.; design: method as in ref 3 (supplement); settings: 21 tested; ref 3 (supplement); cited from earlier work
[6] = 28 day oral toxicology study, dog; settings: for Salient Pathology Findings: 1 month dog (po)
[7] = both, beagle, dog, plasma, po, 100 mg/kg/day
[8] = both, beagle, dog, plasma, po, 200 mg/kg/day
[9] = both, beagle, dog, plasma, po, 500 mg/kg/day

Compound: C[C@@H]1CN2c3c(cc4c(N5C(=O)OC[C@@H]5C)noc4c3F)CC3(C(=O)NC(=O)NC3=O)[C@H]2[C@H](C)O1 [ETX0914]
- IC50 [1]: > 100 µM
- IC50 [2]: > 100 µM
- Ka [3]: 1.6 h⁻¹
- clearance ([3]; plasma, IV 10 mg/kg, read-out: Clp (IV)): 22 mL/min/kg
- half-life ([3]; plasma, IV 10 mg/kg, read-out: T1/2 (IV) (converted)): 42 min
- Vd ([3]; plasma, IV 10 mg/kg, read-out: Vss (IV)): 1.2 L/kg
- bioavailability ([3]; plasma, IV 10 / PO 10 mg/kg): 34%
- Cmax ([3]; plasma, PO 10 mg/kg): 1700 nM
- half-life ([3]; plasma, PO 10 mg/kg, read-out: T1/2 (PO) (converted)): 108 min
- clearance ([4]; IV 2.5 mg/kg, read-out: Clp (IV)): 12 mL/min/kg
- half-life ([4]; IV 2.5 mg/kg, read-out: T1/2 (IV) (converted)): 96 min
- Vd ([4]; IV 2.5 mg/kg, read-out: Vss (IV)): 1.3 L/kg
- bioavailability ([4]; IV 2.5 / PO 5 mg/kg): 58%
- Cmax ([4]; PO 5 mg/kg): 6.5 µM
- half-life ([4]; PO 5 mg/kg, read-out: T1/2 (PO) (converted)): 96 min
- PPB (%free) [5]: 18.4±0.3 %free
- MIC90 (Streptococcus pneumoniae): 0.25^2 µg/ml
- MIC Range (Streptococcus pneumoniae): ≤ 0.015 to 0.5 µg/mL
- MIC90 (Moraxella catarrhalis): 0.25^2 µg/ml
- MIC Range (Moraxella catarrhalis): 0.015 to 0.5 µg/mL
- MIC90 (Ureaplasma spp.): 1.0^3 µg/ml
- MIC Range (Ureaplasma spp.): 0.125 to 2 µg/mL
- Salient Pathology Findings ([6]; 200 mg/kg/day): Testes tubular degeneration partially reversible 3 months post dosing
- Salient Pathology Findings ([6]; 500 mg/kg/day): As above plus: Epididymis cellular debris Caecum/illium/rectum necrosis
- NOAEL at 28 days ([6]; both, beagle, dog, in vivo, po): 100 mg/kg and 100 mg/kg/day
- Cmax ([6]; both, beagle, dog, in vivo, po, 100 mg/kg): 85 µg/mL
- AUC [6, 7]: 870 ± 240 µg·h/mL
- Cmax [6, 7]: 90 ± 22 µg/mL
- AUC [6, 8]: 2160 ± 460 µg·h/mL
- Cmax [6, 8]: 210 ± 18 µg/mL
- AUC [6, 9]: 2780 ± 1140 µg·h/mL
- Cmax [6, 9]: 220 ± 94 µg/mL
- haematology or platelet count at the NOAEL ([6]; dog): no significant changes in haematology or platelet count
- finding at highest dose tested ([6]; dog, 500 mg/kg/day): tachycardia was observed
- tolerated dose ([6]; dog, oral gavage, 28 days): 500 mg/kg/day
